One experiment relates to HIV replication in T-lymphoid cells. Description: Spread assay: inhibition of acute HIV infection of T-lymphoid cells. Format: cell-based. As to conditions: Human immunodeficiency virus 1, T-lymphoid, read-out: IC95, spread assay (inhibition of HIV replication). How it is done:
An assay for the inhibition of acute HIV infection of T-lymphoid cells (alternatively referred to herein as the “spread assay”) was conducted in accordance with Vacca, J. P. et al., Proc. Natl. Acad. Sci. USA 1994, 91: 4096. […] The compounds of Examples 26, 29, 30, 33-35 and 62 were tested in the spread assay up to 10 micromolar, but specific IC95 values were not obtained; i.e., the IC95 values were greater than 10 micromolar. The compounds of Examples 47 and 61 were not tested.
As a reminder, the IC95 is the concentration at which the effect reaches the 95% level. Consider `COC(=O)c1[nH]c2ccc(Br)cc2c1S(=O)(=O)NC1CCCC1` [Example 26, methyl 5-bromo-3-[(cyclopentylamino)sulfonyl]-1H-indole-2-carboxylate], for which the IC95 was more than 10000 nM.

Consider `CCOC(=O)c1[nH]c2ccc(Br)cc2c1S(=O)(=O)N1CCCCC1` [Example 27, ethyl 5-bromo-3-(piperidin-1-ylsulfonyl)-1H-indole-2-carboxylate], for which the IC95 lay in the range of 1000 to 10000 nM.

Turning to `CCOC(=O)c1[nH]c2ccc(Br)cc2c1S(=O)(=O)NCCOC` [Example 28, ethyl 5-bromo-3-{[(2-methoxyethyl)amino]sulfonyl}-1H-indole-2-carboxylate], the IC95 was less than 1000 nM.

As for `CCOC(=O)c1[nH]c2ccc(Br)cc2c1S(=O)(=O)NC1CCCC1` [Example 29, ethyl 5-bromo-3-[(cyclopentylamino)sulfonyl]-1H-indole-2-carboxylate], the IC95 is more than 10000 nM.

Turning to `CCOC(=O)c1[nH]c2ccc(Br)cc2c1S(=O)(=O)N1CCCC1C(F)(F)F` (stereo not drawn) [Example 30, ethyl 5-bromo-3-{[2-(trifluoromethyl)pyrrolidin-1-yl]sulfonyl}-1H-indole-2-carboxylate], the IC95 was more than 10000 nM.

In the case of `O=C1CN(S(=O)(=O)c2c(C(=O)NCCO)[nH]c3ccc(Br)cc23)CCN1` [Example 36, 5-bromo-N-(2-hydroxyethyl)-3-[(3-oxopiperazin-1-yl)sulfonyl]-1H-indole-2-carboxamide], the concentration for an effect of 95% (IC95) was 1000 to 10000 nM.

The same experiment, now with this note: Human immunodeficiency virus 1; acute HIV infection of T-lymphoid cells; tested up to 10 micromolar; read-out: IC95, spread assay (inhibition of HIV replication).
With `NC(=O)c1[nH]c2ccc(Cl)cc2c1S(=O)(=O)NC1CCC1` [Example 3, 5-chloro-3-[(cyclobutylamino)sulfonyl]-1H-indole-2-carboxamide], the IC95 was less than 1000 nM.

Consider `NC(=O)c1[nH]c2ccc(Cl)cc2c1S(=O)(=O)N1CCC1` [Example 7, 3-(azetidin-1-ylsulfonyl)-5-chloro-1H-indole-2-carboxamide], for which the IC95 was less than 1000 nM.

Take `COC1CCCN(S(=O)(=O)c2c(C(N)=O)[nH]c3ccc(Br)cc23)C1` (stereo not drawn) [Example 20, 5-bromo-3-[(3-methoxypiperidin-1-yl)sulfonyl]-1H-indole-2-carboxamide]: the IC95 was less than 1000 nM.

In the case of `NC(=O)c1[nH]c2ccc(Br)cc2c1S(=O)(=O)N1CCC(F)C1` (stereo not drawn) [Example 22, 5-bromo-3-[(3-fluoropyrrolidin-1-yl)sulfonyl]-1H-indole-2-carboxamide], the IC95 was less than 1000 nM.

Turning to `CCCNS(=O)(=O)c1c(C(N)=O)[nH]c2ccc(Br)cc12` [Example 23, 5-bromo-3-[(propylamino)sulfonyl]-1H-indole-2-carboxamide], the IC95 is less than 1000 nM.

Consider `COC(=O)c1[nH]c2ccc(Br)cc2c1S(=O)(=O)N1CCCCC1` [Example 24, methyl 5-bromo-3-(piperidin-1-ylsulfonyl)-1H-indole-2-carboxylate], for which the IC95 is less than 1000 nM.

Consider `COC(=O)c1[nH]c2ccc(Br)cc2c1S(=O)(=O)N1CCCC1` [Example 25, methyl 5-bromo-3-(pyrrolidin-1-ylsulfonyl)-1H-indole-2-carboxylate], for which the concentration for an effect of 95% (IC95) was less than 1000 nM.

On to `O=C(NCCO)c1[nH]c2ccc(Br)cc2c1S(=O)(=O)NC1CC1` [Example 33, 5-bromo-3-[(cyclopropylamino)sulfonyl]-N-(2-hydroxyethyl)-1H-indole-2-carboxamide], for which the IC95 is more than 10000 nM.

In the case of `O=C(NCCO)c1[nH]c2ccc(Br)cc2c1S(=O)(=O)NC1CCCCC1` [Example 34, 5-bromo-3-[(cyclohexylamino)sulfonyl]-N-(2-hydroxyethyl)-1H-indole-2-carboxamide], the IC95 was more than 10000 nM.

`O=C(NCCO)c1[nH]c2ccc(Br)cc2c1S(=O)(=O)NC1CCCC1` [Example 35, 5-bromo-3-[(cyclopentylamino)sulfonyl]-N-(2-hydroxyethyl)-1H-indole-2-carboxamide]: the IC95 is more than 10000 nM.

Take `NC(=O)c1[nH]c2ccc(Cl)cc2c1S(=O)(=O)N1CCCC1C(F)(F)F` (stereo not drawn) [Example 40, 5-chloro-3-{[2-(trifluoromethyl)pyrrolidin-1-yl]sulfonyl}-1H-indole-2-carboxamide]: the IC95 was less than 1000 nM.

Consider `NC(=O)c1[nH]c2ccc(Cl)cc2c1S(=O)(=O)N1CCCC(F)C1` (stereo not drawn) [Example 41, 5-chloro-3-[(3-fluoropiperidin-1-yl)sulfonyl]-1H-indole-2-carboxamide], for which the IC95 was less than 1000 nM.

Consider `NC(=O)c1[nH]c2ccc(Br)cc2c1S(=O)(=O)N1CCC(F)(F)C1` [Example 42, 5-bromo-3-[(3,3-difluoropyrrolidin-1-yl)sulfonyl]-1H-indole-2-carboxamide], for which the IC95 is less than 1000 nM.

With `NC(=O)c1[nH]c2ccc(Br)cc2c1S(=O)(=O)N1CCC(F)(F)CC1` [Example 43, 5-bromo-3-[(4,4-difluoropiperidin-1-yl)sulfonyl]-1H-indole-2-carboxamide], the concentration for an effect of 95% (IC95) is less than 1000 nM.

For the compound `NC(=O)c1[nH]c2ccc(Br)cc2c1S(=O)(=O)NC1CCC1` [Example 44, 5-bromo-3-[(cyclobutylamino)sulfonyl]-1H-indole-2-carboxamide], the IC95 was less than 1000 nM.

Regarding `NC(=O)c1[nH]c2ccc(Br)cc2c1S(=O)(=O)N1CCC(F)CC1` [Example 45, 5-bromo-3-[(4-fluoropiperidin-1-yl)sulfonyl]-1H-indole-2-carboxamide], the IC95 is less than 1000 nM.

On to `NC(=O)c1[nH]c2ccc(Cl)cc2c1S(=O)(=O)N1CCC(F)CC1` [Example 46, 5-chloro-3-[(4-fluoropiperidin-1-yl)sulfonyl]-1H-indole-2-carboxamide], for which the IC95 is less than 1000 nM.

Take `O=C(NCCc1cnc[nH]1)c1[nH]c2ccc(Br)cc2c1S(=O)(=O)N1CCCC1` [Example 49, 5-bromo-N-[2-(1H-imidazol-5-yl)ethyl]-3-(pyrrolidin-1-ylsulfonyl)-1H-indole-2-carboxamide]: the IC95 is less than 1000 nM.

As for `O=C(NCc1cccnc1)c1[nH]c2ccc(Br)cc2c1S(=O)(=O)N1CCCC1` [Example 50, 5-bromo-N-(pyridin-3-ylmethyl)-3-(pyrrolidin-1-ylsulfonyl)-1H-indole-2-carboxamide], the 95% effect concentration (IC95) was less than 1000 nM.

Regarding `O=C(NCCCn1ccnc1)c1[nH]c2ccc(Br)cc2c1S(=O)(=O)N1CCCC1` [Example 52, 5-bromo-N-[3-(1H-imidazol-1-yl)propyl]-3-(pyrrolidin-1-ylsulfonyl)-1H-indole-2-carboxamide], the IC95 is less than 1000 nM.

As to `O=C(NCc1ccccn1)c1[nH]c2ccc(Br)cc2c1S(=O)(=O)N1CCCC1` [Example 54, 5-bromo-N-(pyridin-2-ylmethyl)-3-(pyrrolidin-1-ylsulfonyl)-1H-indole-2-carboxamide], the 95% effect concentration (IC95) was less than 1000 nM.

With `NS(=O)(=O)c1ccc(CNC(=O)c2[nH]c3ccc(Br)cc3c2S(=O)(=O)N2CCCC2)cc1` [Example 55, N-[4-(aminosulfonyl)benzyl]-5-bromo-3-(pyrrolidin-1-ylsulfonyl)-1H-indole-2-carboxamide], the IC95 is less than 1000 nM.

Regarding `COCCNC(=O)c1[nH]c2ccc(Br)cc2c1S(=O)(=O)N1CCCC1` [Example 56, 5-bromo-N-(2-methoxyethyl)-3-(pyrrolidin-1-ylsulfonyl)-1H-indole-2-carboxamide], the 95% effect concentration (IC95) is less than 1000 nM.

On to `O=C(NCc1cscn1)c1[nH]c2ccc(Br)cc2c1S(=O)(=O)N1CCCC1` [Example 57, 5-bromo-3-(pyrrolidin-1-ylsulfonyl)-N-(1,3-thiazol-4-ylmethyl)-1H-indole-2-carboxamide], for which the 95% effect concentration (IC95) is less than 1000 nM.
